test system: PC3 cells; experiment: NAMPT Cell Proliferation Assay; assay type: cell-based; conditions: Homo sapiens, PC-3, 120 h, 5 days incubation, cell viability by Cell Titer Glo
How it was run: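 Seeded at 500 cells/well in RPMI with 10% heat-inactivated FBS and left to attach overnight at 37° C, 5% CO2. Compounds were added as 10-fold dilutions […] for 5 days, then viability was read by CellTiter-Glo. IC50s came from sigmoidal fits of percent inhibition.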

Point of comparison: `O=C(NC1CN(c2cccnn2)C1)c1ccc(C2CCN(C(=O)c3ccccc3F)CC2)s1` [Example 811, 5-[1-(2-fluorobenzoyl)piperidin-4-yl]-N-[1-(pyridazin-3-yl)azetidin-3-yl]thiophene-2-carboxamide], IC50 11 nM. Against it:
- O=C(Nc1ccc(OC2CCN(C(=O)CC3CC3)CC2)cc1)C1CN(c2ccnnc2)C1 [Example 293, N-(4-{[1-(cyclopropylacetyl)piperidin-4-yl]oxy}phenyl)-1-(pyridazin-4-yl)azetidine-3-carboxamide] — 6.6-fold higher, 72.3 nM
- O=C(Nc1ccc(C2CCN(C(=O)Cc3cccc(Cl)c3)CC2)cc1)C1CN(c2cccnn2)C1 [Example 404, N-(4-{1-[(3-chlorophenyl)acetyl]piperidin-4-yl}phenyl)-1-(pyridazin-3-yl)azetidine-3-carboxamide] — 4.1-fold lower, 2.7 nM
- O=C(NC1CN(c2cccnn2)C1)c1ccc(C2CCN(C(=O)c3ccccc3)CC2)s1 [Example 810, 5-(1-benzoylpiperidin-4-yl)-N-[1-(pyridazin-3-yl)azetidin-3-yl]thiophene-2-carboxamide] — 5.6-fold higher, 61.1 nM
- CCC(C)CC(=O)N1CCC(c2ccc(NC(=O)C3CN(c4cccnc4)C3)cc2)CC1 (centres unmarked) [Example 99, N-{4-[1-(3-methylpentanoyl)piperidin-4-yl]phenyl}-1-(pyridin-3-yl)azetidine-3-carboxamide] — 1.9-fold lower, 5.72 nM
- CC(C)(C)C(=O)N1CCC(c2ccc(NC(=O)C3CN(c4cccnc4)C3)cc2)CC1 [Example 125, N-{4-[1-(2,2-dimethylpropanoyl)piperidin-4-yl]phenyl}-1-(pyridin-3-yl)azetidine-3-carboxamide] — 46-fold lower, 0.24 nM
- O=C(Nc1ccc(C2CCN(C(=O)c3ccc(F)cc3F)CC2)cc1)C1CN(c2cccnn2)C1 [Example 391, N-{4-[1-(2,4-difluorobenzoyl)piperidin-4-yl]phenyl}-1-(pyridazin-3-yl)azetidine-3-carboxamide] — 1.8-fold lower, 5.99 nM
- CC(C)(C)c1cc(-c2ccc(NC(=O)C3CN(c4cccnn4)C3)cc2)n(CC2CCOCC2)n1 [Example 867, N-{4-[3-tert-butyl-1-(tetrahydro-2H-pyran-4-ylmethyl)-1H-pyrazol-5-yl]phenyl}-1-(pyridazin-3-yl)azetidine-3-carboxamide] — within 1.5-fold, 7.84 nM
- O=C(Nc1ccc(OC2CCN(C(=O)c3ccc(C(F)(F)F)cc3)CC2)cc1)C1CN(c2ccnnc2)C1 [Example 287, 1-(pyridazin-4-yl)-N-[4-({1-[4-(trifluoromethyl)benzoyl]piperidin-4-yl}oxy)phenyl]azetidine-3-carboxamide] — 11-fold higher, 121 nM
- O=C(Nc1ccc(OC2CCN(C(=O)c3cccc(F)c3)CC2)cc1)[C@H]1CCN(c2cccnn2)C1 [Example 798, (3S)-N-(4-{[1-(3-fluorobenzoyl)piperidin-4-yl]oxy}phenyl)-1-(pyridazin-3-yl)pyrrolidine-3-carboxamide] — 6-fold higher, 66.4 nM
- CCCC(=O)N1CCC(c2ccc(NC(=O)C3CN(c4cccnc4)C3)cc2)CC1 [Example 134, N-[4-(1-butanoylpiperidin-4-yl)phenyl]-1-(pyridin-3-yl)azetidine-3-carboxamide] — 17-fold lower, 0.64 nM
- O=C(Nc1ccc(OC2CCN(C(=O)c3ccc(F)cc3)CC2)cc1)C1CN(c2ccnnc2)C1 [Example 271, N-(4-{[1-(4-fluorobenzoyl)piperidin-4-yl]oxy}phenyl)-1-(pyridazin-4-yl)azetidine-3-carboxamide] — 4.7-fold higher, 51.5 nM
- CC[C@H](C)C(=O)N1CC(Oc2ccc(NC(=O)C3CN(c4ccnnc4)C3)cc2)C1 [Example 265, N-[4-({1-[(2S)-2-methylbutanoyl]azetidin-3-yl}oxy)phenyl]-1-(pyridazin-4-yl)azetidine-3-carboxamide] — 6.4-fold higher, 70.1 nM
- N#Cc1ccncc1N1CC(C(=O)Nc2ccc(C3CCN(C(=O)c4ccccc4)CC3)cc2)C1 [Example 738, N-[4-(1-benzoylpiperidin-4-yl)phenyl]-1-(4-cyanopyridin-3-yl)azetidine-3-carboxamide] — 78-fold higher, 854 nM
- O=C(Nc1ccc(C2CCN(C(=O)CN3CCOCC3)CC2)cc1)C1CN(c2cccnc2)C1 [Example 103, N-{4-[1-(morpholin-4-ylacetyl)piperidin-4-yl]phenyl}-1-(pyridin-3-yl)azetidine-3-carboxamide] — 7.6-fold lower, 1.44 nM
- O=C(N[C@H]1CCN(c2cccnn2)C1)c1ccc(C2CCN(C(=O)c3cccc(F)c3)CC2)s1 [Example 754, 5-[1-(3-fluorobenzoyl)piperidin-4-yl]-N-[(3S)-1-(pyridazin-3-yl)pyrrolidin-3-yl]thiophene-2-carboxamide] — 8.6-fold higher, 94.8 nM
- CN(C)CCC(=O)N1CCC(c2ccc(NC(=O)C3CN(c4cccnc4)C3)cc2)CC1 [Example 107, N-{4-[1-(N,N-dimethyl-beta-alanyl)piperidin-4-yl]phenyl}-1-(pyridin-3-yl)azetidine-3-carboxamide] — 1.6-fold lower, 6.88 nM
- CC(C)Cn1cc(-c2ccc(C(=O)N[C@H]3CCN(c4ccc(Cl)nn4)C3)o2)cn1 [Example 746, N-[(3S)-1-(6-chloropyridazin-3-yl)pyrrolidin-3-yl]-5-[1-(2-methylpropyl)-1H-pyrazol-4-yl]furan-2-carboxamide] — higher, > 10000 nM
- O=C(Nc1ccc(OC2CCN(C(=O)c3ccccc3F)CC2)cc1)[C@H]1CCN(c2cccnn2)C1 [Example 797, (3S)-N-(4-{[1-(2-fluorobenzoyl)piperidin-4-yl]oxy}phenyl)-1-(pyridazin-3-yl)pyrrolidine-3-carboxamide] — within 1.5-fold, 12.6 nM
- O=C(Nc1ccc(S(=O)(=O)C2CCN(C(=O)c3ccccc3Cl)CC2)cc1)C1CN(c2cccnn2)C1 [Example 611, N-(4-{[1-(2-chlorobenzoyl)piperidin-4-yl]sulfonyl}phenyl)-1-(pyridazin-3-yl)azetidine-3-carboxamide] — 8.2-fold higher, 90 nM
- CC(C)(C)OC(=O)N1CCC(Oc2ccc(NC(=O)[C@H]3CCN(c4cccnc4)C3)cc2)CC1 [Example 8, tert-butyl 4-[4-({[(3S)-1-(pyridin-3-yl)pyrrolidin-3-yl]carbonyl}amino)phenoxy]piperidine-1-carboxylate] — 6.4-fold higher, 70.8 nM
- O=C(NC1CN(c2cccnn2)C1)c1ccc(C2CCN(C(=O)c3ccc(F)cc3F)CC2)s1 [Example 813, 5-[1-(2,4-difluorobenzoyl)piperidin-4-yl]-N-[1-(pyridazin-3-yl)azetidin-3-yl]thiophene-2-carboxamide] — 7.1-fold higher, 78.6 nM
- O=C(Nc1ccc(OC2CN(C(=O)c3ccc(F)cc3F)C2)cc1)C1CN(c2ccnnc2)C1 [Example 200, N-(4-{[1-(2,4-difluorobenzoyl)azetidin-3-yl]oxy}phenyl)-1-(pyridazin-4-yl)azetidine-3-carboxamide] — 6.5-fold higher, 71.9 nM
- O=C(Nc1ccc(C2CCN(C(=O)CCC(F)(F)F)CC2)cc1)C1CN(c2cccnc2)C1 [Example 112, 1-(pyridin-3-yl)-N-{4-[1-(4,4,4-trifluorobutanoyl)piperidin-4-yl]phenyl}azetidine-3-carboxamide] — 14-fold lower, 0.76 nM
- CCC(CC)C(=O)N1CCC(c2ccc(NC(=O)C3CN(c4cccnn4)C3)cc2)CC1 [Example 328, N-{4-[1-(2-ethylbutanoyl)piperidin-4-yl]phenyl}-1-(pyridazin-3-yl)azetidine-3-carboxamide] — 6.9-fold lower, 1.59 nM
- O=C(Nc1ccc(C2CCN(C(=O)c3ccccc3F)CC2)cc1)C1CN(c2ccc(F)nn2)C1 [Example 819, N-{4-[1-(2-fluorobenzoyl)piperidin-4-yl]phenyl}-1-(6-fluoropyridazin-3-yl)azetidine-3-carboxamide] — within 1.5-fold, 8.56 nM
- O=C(Nc1ccc(C2CCN(C(=O)C3CCOCC3)CC2)cc1)C1CN(c2ccnnc2)C1 [Example 146, 1-(pyridazin-4-yl)-N-{4-[1-(tetrahydro-2H-pyran-4-ylcarbonyl)piperidin-4-yl]phenyl}azetidine-3-carboxamide] — 6.4-fold higher, 70.7 nM
- CC(C)C(=O)N1CCC(c2ccc(NC(=O)C3CN(c4cccnn4)C3)cc2)CC1 [Example 147, N-{4-[1-(2-methylpropanoyl)piperidin-4-yl]phenyl}-1-(pyridazin-3-yl)azetidine-3-carboxamide] — 12-fold lower, 0.95 nM
- CC(C)(C)Cn1cnc(-c2ccc(NC(=O)C3CN(c4cccnn4)C3)cc2)c1 [Example 804, N-{4-[1-(2,2-dimethylpropyl)-1H-imidazol-4-yl]phenyl}-1-(pyridazin-3-yl)azetidine-3-carboxamide] — within 1.5-fold, 7.92 nM
- CC(C)Cn1cc(-c2ccc(C(=O)N[C@@H]3CCN(c4cccnn4)C3)s2)cn1 [Example 605, 5-[1-(2-methylpropyl)-1H-pyrazol-4-yl]N-[(3R)-1-(pyridazin-3-yl)pyrrolidin-3-yl]thiophene-2-carboxamide] — 130-fold higher, 1400 nM
- O=C(Nc1ccc(C2CCN(C(=O)Cc3cccc(F)c3F)CC2)cc1)C1CN(c2cccnn2)C1 [Example 419, N-(4-{1-[(2,3-difluorophenyl)acetyl]piperidin-4-yl}phenyl)-1-(pyridazin-3-yl)azetidine-3-carboxamide] — 5.1-fold lower, 2.17 nM
- O=C(Nc1ccc(OC2CCN(C(=O)CC(F)(F)F)CC2)cc1)[C@H]1CCN(c2cccnc2)C1 [Example 18, (3S)-1-(pyridin-3-yl)-N-(4-{[1-(3,3,3-trifluoropropanoyl)piperidin-4-yl]oxy}phenyl)pyrrolidine-3-carboxamide] — 13-fold higher, 148 nM
- O=C(Nc1ccc(OC2CCN(C(=O)c3ccc(OC(F)(F)F)cc3)CC2)cc1)C1CN(c2cccnn2)C1 [Example 235, 1-(pyridazin-3-yl)-N-[4-({1-[4-(trifluoromethoxy)benzoyl]piperidin-4-yl}oxy)phenyl]azetidine-3-carboxamide] — within 1.5-fold, 12.4 nM
- O=C(Nc1ccc(C2CCN(C(=O)CC[N+](=O)[O-])CC2)cc1)C1CN(c2cccnn2)C1 [Example 336, N-{4-[1-(3-nitropropanoyl)piperidin-4-yl]phenyl}-1-(pyridazin-3-yl)azetidine-3-carboxamide] — within 1.5-fold, 8.26 nM
- O=C(Nc1ccc(C2CCN(C(=O)c3ccccc3Cl)CC2)cc1)C1CN(c2ccnnc2)C1 [Example 525, N-{4-[1-(2-chlorobenzoyl)piperidin-4-yl]phenyl}-1-(pyridazin-4-yl)azetidine-3-carboxamide] — 12-fold lower, 0.93 nM

From patent US20130303509A1, “NAMPT INHIBITORS” (AbbVie Inc., priority 2012, published 2013)
